Assay results from patent US20030069200A1, “Use of glucosylceramide synthesis inhibitors in brain cancertherapy” (priority 2000, published 2003).

Legend:
neuroblastoma cells = settings: in vitro, cited from earlier work
CT-2A tumour [1] = assay: Intra-cranial CT-2A tumour growth and ganglioside content in C57BL/6J mice; type: in vivo, mouse
Procedure: (§1) CT-2A tumour tissue was minced and tissue pieces (about 1 mm^3) were implanted into the cerebral cortex of C57BL/6J mice using a trocar as described previously (Seyfried et al. 1987. Cancer Res. 47:3538-3542). The NB-DNJ diet as in Example 2. Control mice received only the powdered mouse chow. Tumours were excised from surrounding brain tissue, frozen, and lyophilized to remove water. Gangliosides were isolated and purified and content expressed as μg sialic acid/100 mg dry weight, as determined using the resorcinol reagent, as previously described (Seyfried et al. 1978. J. Neurochem. 31:21-27).

EPEN tumour = assay: Subcutaneous EPEN tumour growth in C57BL/6 mice; type: in vivo, mouse; settings: NB-DNJ 2400 mg/kg body wt/day in diet, ten days
Procedure: (§2) CT-2A and EPEN tumours were grown subcutaneously in the flanks of six-week old syngeneic C57BL/6 mice. The treated mice were maintained on a powdered mouse chow diet (Prolab, Agway) that contained NB-DNJ (2400 mg/kg body weight/day). The control mice received only the powdered mouse chow. Tumours were enzymatically dissociated as described in Ecsedy et al, J. Lipid Res., 39: 2218-2227, 1998 and approximately 5×10^6 cells from each tumour were inoculated subcutaneously into the flanks of the host mice. For the CT-2A-bearing mice, drug treatment was started six days post-tumour cell inoculation and was continued for a total of nine days. For the EPEN-bearing mice, drug treatment was started eleven days post-tumour inoculation and was continued for a total of ten days. This was done because the EPEN tumour grows more slowly than the CT-2A tumour (Cotterchio et al. 1993. Mol. Chem. Neuropathol. 20:163-172). The method of Looney was used to determine tumour growth rates (volume increase/day) as previously described (Cotterchio et al. 1993. Mol. Chem. Neuropathol. 20:163-172). The results are shown in FIGS. 3A and 3B where values are expressed as means±SEM except for the control EPEN, which is the mean of two independent samples.

EPEN cells = assay: Growth of cultured EPEN brain tumour cells (Coulter counter cell counts); type: cell-based; settings: NB-DNJ 200 μM
Procedure: (§3) Approximately 0.5×10^4 cells for CT-2A and 1×10^4 cells for EPEN were seeded in wells of a 24 well plate and cultured for 24 hours in DMEM supplemented with 10% FBS. The exact cellular origin of the CT-2A and EPEN tumours is not known, but Dr. Allan Yates, Chief of Neuropathology at Ohio State University classified the tumours as poorly differentiated anaplastic astrocytomas (see Seyfried et al Mol. Chem. Neuropathol. 17: 147-167, 1992).
(§4) Cells were cultured for a further 7 days in the same medium for control cells or in the presence of NB-DNJ (200 μM) for treated cells. Cells were counted on days 2, 4, 6 and 8 using a Coulter counter and the results are shown in FIGS. 2A and 2B where values are expressed as means±SEM (N=3).

CT-2A tumour [2] = assay: Ganglioside neuraminic acid content of the CT-2A mouse brain tumour (Table 1); type: in vivo; settings: treated mice, mean of N=2
Procedure: as §1
In addition, NB-DNJ reduced ganglioside content in the CT-2A mouse brain tumour grown subcutaneously (See FIG. 4B and Table 1 below).

CT-2A cells = assay: Growth of cultured CT-2A brain tumour cells (Coulter counter cell counts); type: cell-based; settings: NB-DNJ 200 μM
Procedure: as §3, §4

CT-2A tumour [3] = assay: Subcutaneous CT-2A tumour growth in C57BL/6 mice; type: in vivo, mouse; settings: NB-DNJ 2400 mg/kg body wt/day in diet, nine days
Procedure: as §2

[4] = intra-cranial CT-2A tumours, NB-DNJ diet

Compound	ganglioside shedding by neuroblastoma tumours (neuroblastoma cells; Li et al 1996)	neurite outgrowth by neuroblastoma cells (neuroblastoma cells; Uemura et al 1990)	intra-cranial growth of the CT-2A tumour (CT-2A tumour [1]; NB-DNJ dietary treatment)	blood brain barrier penetration (CT-2A tumour [1]; inferred from the effect on intra-cranial tumours, dietary treatment)	reduction in ganglioside concentration (CT-2A tumour [1]; [4]) [%]	reduction in tumour dry weight (CT-2A tumour [1]; [4]) [%]	reduction of tumour growth rate compared to untreated controls (EPEN tumour) [%]	percentage of dead cells vs control (trypan blue exclusion) (EPEN cells; EPEN culture)	growth inhibition of cultured EPEN tumour cells (EPEN cells; after 8 days)	Ganglioside Neuraminic Acid Content, NeuAc (CT-2A tumour [2]) [μg/100 mg dry wt]	Ganglioside Neuraminic Acid Content, NeuGc (CT-2A tumour [2]) [μg/100 mg dry wt]	Ganglioside Neuraminic Acid Content, Total (CT-2A tumour [2]) [μg/100 mg dry wt]	percentage of dead cells vs control (trypan blue exclusion) (CT-2A cells; CT-2A culture)	growth inhibition of cultured CT-2A tumour cells (CT-2A cells; after 8 days)	reduction of tumour growth rate compared to untreated controls (CT-2A tumour [3]) [%]
CCCCCCCCCC(=O)N[C@H](CN1CCOCC1)[C@H](O)c1ccccc1 [D-PDMP, D-threo-1-phenyl-2-decanoylamino-3-morpholino-1-propanol]	reduces ganglioside shedding	inhibit neurite outgrowth	–	–	–	–	–	–	–	–	–	–	–	–	–
CCCCN1C[C@H](O)[C@@H](O)[C@H](O)[C@H]1CO [NB-DNJ, N-butyldeoxynojirimycin]	–	–	significantly reduced	can penetrate the blood brain barrier	53	55	76	did not differ significantly	about 50%	21.8	5.6	27.1	did not differ significantly	about 50%	68
